From article PMC2999418, “Biological Activity and Binding Site Characteristics of the PA1b Entomotoxin on Insects from Different Orders” (Journal of Insect Science, 2007)

How the values were obtained:
Sitophilus granarius = assay: Toxicity assay on cereal weevil adults, toxin in food, survival analysis; type: in vivo; conditions: S. granarius Brayard strain
Description: (§1) Cereal weevils (Sitophilus oryzae, S. zeamais and S. granarius, Coleoptera) were reared for more than 10 years in our laboratory on wheat seeds at […] 70% RH. Resistant strains were reared on pea seeds. Tests and survival analysis were performed on adults, as fully described in Louis et al ([2004]).
(§2) All toxicity assays were carried out using a mixture of PA1b isoforms (98% purity by HPLC). All tests were performed on at least 30 insects for assays and for control test (without toxin), except for the three aphid species (50 insects) and for Trichogramma (more than 300 eggs by assays). When adults were used, the insects were synchronized at the imaginal molt. The statistical analyses were performed using the JMP software (SAS, Grégy-sur-Yerres FRA).

Sitophilus oryzae = assay: as above; type: in vivo; conditions: dose-response, PA1b isoform mixture in food, confidence interval in brackets
Description: as §1, §2

Sitophilus zeamais = assay: as above; type: in vivo; conditions: S. zeamais LS strain, day 7, confidence interval in brackets
Description: as §1, §2

A. famigatus = assay: Antifungal test, fungal growth; type: cell-based; conditions: increasing toxin concentration up to 64 µg-ml^-1, 24 and 48 hours
Description: (§3) A possible antimicrobial and antifungal activity of PA1b was next tested on four bacterial and three fungal species. The experiments were done using an increasing toxin concentration, up to 64 µg-ml^-1.

C. albicans = assay: Antifungal test, fungal growth; type: cell-based; conditions: increasing toxin concentration up to 64 µg-ml^-1, 24 and 48 hours
Description: as §3

C. glabrata = assay: Antifungal test, fungal growth; type: cell-based; conditions: increasing toxin concentration up to 64 µg-ml^-1, 24 and 48 hours
Description: as §3

[1] = biological target: PA1b binding protein on membrane extracts; assay: 125I-PA1b binding (competition) on insect membrane extracts; parameters: species or system Tribolium castaneum; conditions: T. castaneum membrane extracts; competition with purified 3741 isoform
Description: (§4) The isolation of membrane proteins for binding studies was performed as described by Gressent et al. ([2003]). For PA1b degradation tests, insect extracts were prepared as follows, 1 g of insects were ground with a mortar and pestle in liquid nitrogen. The resulting powder was resuspended in 2 ml of extraction buffer (20 mM Tris-HCl pH 8; 0.25 M sucrose; 2 mM MgCl2). The slurry was centrifuged for 2 min at 1000 g, and the supernatant was stored at -2O°C until required. All the operations were performed at 4°C.
(§5) The peptidic toxin PA1b-3471 isoform was labelled with I^125 to a specific radioactivity of about 900 Ci.mmor^-1, and then used for binding studies with membrane extracts, according to Gressent et al. ([2003]).
(§6) PA1b binding activity was present in all insect species, except for the resistant weevil strains and the pea specific pest Bruchus pisorum, regardless of the sensitivity or insensitivity of these insects to PA1b toxicity, as evaluated from our insect bioassays. […] The relative abundance of the binding sites was also slightly different in this group of species, varying from 10 pmol/mg of protein for T. pretiosum to a maximum of 79 pmol/mg of protein for M. persicae.

[2] = biological target: PA1b binding protein on membrane extracts; assay: as above; parameters: species or system Trichogramma pretiosum; conditions: T. pretiosum membrane extracts; competition with purified 3741 isoform
Description: as §4, §5, §6

[3] = biological target: PA1b binding protein on membrane extracts; assay: as above; parameters: species or system Aphis gossypii; conditions: A. gossypii membrane extracts; competition with purified 3741 isoform
Description: as §4, §5, §6

[4] = biological target: PA1b binding protein on membrane extracts; assay: as above; parameters: species or system Acyrthosiphon pisum; conditions: A. pisum membrane extracts; competition with purified 3741 isoform
Description: as §4, §5, §6

pronase E type XIV = assay: PA1b degradation assay with commercial protease; type: in vitro ADME; conditions: 10 µg pronase E, 37°C, one night incubation, C18 HPLC
Description: PA1b degradation assays were performed using 10 µg of peptide (PA1b isoform mixture) in a final volume of 100 µl buffer. Assays with commercially (SIGMA, www.sigmaaldrich.com) available enzymes were performed in Glycine-NaOH buffer (20 mM pH 9) at 3O°C for proteinase K (E.C. 3.4.21.64), Tris-HCl buffer (20 mM pH 7.5) + EDTA 10 mM at 37°C for pronase E type XIV, MES-NaOH buffer (20 mM pH 6.2) at 25°C for papain (E.C. 3.4.22.2), Tris-HCl buffer (20 mM pH 7.8) at 25°C for chymotrypsin (E.C. 3.4.21.1), and Tris-HCl buffer (20 mM pH 7.6) at 25°C for trypsin (E.C. 3.4.21.4). Assays were done with 10 µg of each enzyme, and control assays were performed with 10 µg of enzymes denaturated by 10 min boiling. Assays with insect extracts were carried out in 20 mM buffers from pH 3 to 9 (Glycine-HCl, pH 3; sodium acetate pH 4-5; MES-NaOH pH 6; Tris-HCl pH 7-8; Glycine NaOH pH 9) at 3O°C. […]
(§7) For all assays, after a one night incubation, 150 µl of methanol were added to the mixture and incubated for 60 min at 4°C. […] PA1b peptide isoforms were detected by their absorbance at 210 nm, quantified by the measurement of the peak area and with reference to known quantities of pure peptide isoform used as standards.

[5] = system: A. gossypii protein extracts; assay: PA1b degradation assay with total insect protein extract; type: in vitro ADME, Aphis gossypii; conditions: 200 µg A. gossypii (L4) proteins, 10 µg PA1b in 100 µl, 20 mM buffers pH 3 to 9, 30°C, one night incubation; C18 HPLC, UV 210 nm; mean of triplicates
Description: as §4
(§8) PA1b degradation assays were performed using 10 µg of peptide (PA1b isoform mixture) in a final volume of 100 µl buffer. […]
as §7
Figure 3. […] Degradation of PA1b was monitored after incubation by reverse-phase HPLC. […]

[6] = system: D. melanogaster protein extracts; assay: as above; type: in vitro ADME, Drosophila melanogaster; conditions: 200 µg D. melanogaster (L3) total protein extract, 10 µg PA1b, pH 3 to 9, 30°C, one night incubation; C18 HPLC; data not shown
Description: as §4, §8, §7

ASCNGVCSPFEMPPCGTSACRCIPVGLVIGYCR NPSG (bicyclic or more) [PA1b, plant peptide of 37 amino acids purified from pea (Pisum sativum) seeds; entomotoxic cystine-knot peptide with three disulfide bonds]
mortality (Sitophilus granarius; highest tested dose 1000 µg/g): 27% | LD50 estimated by extrapolation (Sitophilus granarius; extrapolated, without confidence interval): ca. 3500 µg/g | LD50 at day 7 (Sitophilus oryzae; S. oryzae strain Bouriz, adults): 501 [281–984] µg/g | LD50 at day 7 (Sitophilus oryzae; S. oryzae strain Bénin, adults): 446 [251–1584] µg/g | LD50 at day 7 (Sitophilus oryzae; S. oryzae strain WAA42, adults): 489 [290–1318] µg/g | LC50 (Sitophilus zeamais): 234 [125–630] µg/g | effect on fungal growth (A. famigatus): no effect was detected | effect on fungal growth (C. albicans): no effect was detected | effect on fungal growth (C. glabrata): no effect was detected | Kd [1]: 11 nM | Kd [2]: 56 nM | Kd [3]: 39 nM | Kd [4]: 58 nM | PA1b recovered after pronase E treatment, relative to control (pronase E type XIV; 10 µg PA1b, Tris-HCl pH 7.5 + EDTA 10 mM): 20 % of the control | Recovered PA1b, Assays (pronase E type XIV; 10 µg PA1b isoform mixture in 100 µl Tris-HCl 20 mM pH 7.5 + EDTA 10 mM, UV 210 nm, mean of triplicates): 1.7 µg | recovered PA1b after incubation with insect proteins versus heat-denatured control [5]: very close to the control test | recovered PA1b after incubation with insect proteins versus heat-denatured control [6]: without any difference between control and test assays
